{"source": "patent US20160137685A1", "about": "“NUCLEOSIDE PHOSPHORAMIDATES AND PHOSPHORAMIDITES” (priority 2013, published 2016)", "key": {"[1]": {"conditions": "healthy volunteers, single ascending doses up to 800 mg once daily; cited from earlier work"}, "[2]": {"test_system": "AGS gastric cancer cells", "assay": "MTT cell viability assay, AGS gastric cancer cells", "assay_type": "cell-based", "conditions": "72 hours, 1.0-20 μM (0.01-20 μM), calculated with Compusyn software", "procedure": "(§1) FIG. 3. Floxphosteridine and floxuridine anticancer activity in vitro against AGS gastric cancer cells. AGS gastric cancer cells were treated with various concentrations (0.01 μM-20 μM) of floxphosteridine and floxuridine for 72 hours, and cell viability was evaluated with MTT cell viability assay.\n(§2) We treated three cancer cell lines with various concentrations of Floxphosteridine (compound Ic) and floxuridine for 72 hours. The structure of floxuridine is shown below:\n(§3) The SK-HEP-1 and HEPG2 cell lines used in these experiments represent in vitro models for hepatic cancer. The AGS cancer cell line is an in vitro model for gastric cancer.\nIn FIG. 3, the two compounds were tested for anticancer activity against AGS gastric cancer cells. The cells were treated with various concentrations (1.0-20 μM) of floxphosteridine and floxuridine for 72 hours, and cell viability was evaluated with the MTT assay."}, "[3]": {"test_system": "SK-HEP-1 hepatic cancer cells", "assay": "MTT cell viability assay, SK-HEP-1 hepatic cancer cells", "assay_type": "cell-based", "conditions": "72 hours, 0.01-20 μM, calculated with Compusyn software", "procedure": "as §1, with “1.” for “3.”, “SK-HEP-1 hepatic” for “AGS gastric”\nas §2, §3\nIn FIG. 1, SK-HEP-1 hepatic cancer cells were treated with various concentrations (0.01-20 μM) of floxphosteridine and floxuridine for 72 hours, and cell viability was evaluated with the MTT assay."}, "[4]": {"test_system": "HEPG2 hepatic cancer cells", "assay": "MTT cell viability assay, HEPG2 hepatic cancer cells", "assay_type": "cell-based", "conditions": "72 hours, 1.0-20 μM, calculated with Compusyn software", "procedure": "as §1, with “2.” for “3.”, “HEPG2 hepatic” for “AGS gastric”, “(1.0” for “(0.01”\nas §2, §3\nIn FIG. 2, the two compounds were tested for anticancer activity against HEPG2 hepatic cancer cells. The cells were treated with various concentrations (1.0-20 μM) of floxphosteridine and floxuridine for 72 hours, and cell viability was evaluated with the MTT assay."}}}
{"compound": "CC(C)OC(=O)[C@H](C)N[P@](=O)(OC[C@H]1O[C@@H](n2ccc(=O)[nH]c2=O)[C@](C)(F)[C@@H]1O)Oc1ccccc1", "note": "(racemic) [PSI-7851]", "values": [{"measurement": "safety and tolerability", "setting": "[1]", "result": "generally safe and well tolerated, with no dose-limiting toxicities"}, {"measurement": "systemic exposure profile (pharmacokinetic results)", "setting": "[1]", "result": "rapid uptake of the drug by the liver and low plasma exposure to the prodrug PSI-7851"}]}
{"compound": "CC(C)OC(=O)[C@H](C)N[P@](=O)(OC[C@H]1O[C@@H](n2cc(F)c(=O)[nH]c2=O)C[C@@H]1O)Oc1ccccc1", "note": "[floxphosteridine]", "values": [{"measurement": "IC50", "setting": "[2]; Homo sapiens", "result": 7.26, "unit": "µM"}, {"measurement": "IC50", "setting": "[3]; Homo sapiens, SK-HEP1, SK-HEP-1 cells", "result": 31.7, "unit": "µM"}, {"measurement": "IC50", "setting": "[4]; Homo sapiens", "result": 13.3, "unit": "µM"}]}
{"compound": "floxuridine", "values": [{"measurement": "IC50", "setting": "[2]", "result": 5.71, "unit": "µM"}, {"measurement": "IC50", "setting": "[3]; SK-HEP-1 cells", "result": 0.8, "unit": "µM"}, {"measurement": "IC50", "setting": "[4]", "result": 10.4, "unit": "µM"}]}
